Test results published in the supplement of paper PMC13380429.
Where a name gives a salt, the structure may show the parent alone.

Assays:
Conditions in all cases: 72 h
[1] = system: Vero E6; assay: relative viability EC50 (midpoint between 100% and the lowest measured viability); higher = less toxic
[2] = system: U2OS; assay: as above
[3] = system: Calu-3; assay: as above
[4] = system: Caco-2; assay: as above
[5] = system: Vero E6; assay: drug sensitivity score (DSS) for viability; higher = more toxic; extreme values may be limits of the assay
[6] = system: U2OS; assay: as above
[7] = system: Calu-3; assay: as above
[8] = system: Caco-2; assay: as above
[9] = system: Vero E6; assay: cell viability relative to DMSO; higher = less toxic
[10] = system: U2OS; assay: as above
[11] = system: Calu-3; assay: as above
[12] = system: Caco-2; assay: as above
[13] = system: HepG2; assay: drug sensitivity score (DSS) for viability; higher = more toxic; extreme values may be limits of the assay
[14] = system: HepG2; assay: cell viability relative to DMSO; higher = less toxic
[15] = system: HepG2; assay: relative viability EC50 (midpoint between 100% and the lowest measured viability); higher = less toxic

SMILES	relative viability EC50 [1] [µM]	relative viability EC50 [2] [µM]	relative viability EC50 [3] [µM]	relative viability EC50 [4] [µM]	drug sensitivity score [5]	drug sensitivity score [6]	drug sensitivity score [7]	drug sensitivity score [8]	cell viability ([9]; 1 nM) [%]	cell viability ([9]; 10 nM) [%]	cell viability ([9]; 100 nM) [%]	cell viability ([9]; 1000 nM) [%]	cell viability ([9]; 10000 nM) [%]	cell viability ([10]; 1 nM) [%]	cell viability ([10]; 10 nM) [%]	cell viability ([10]; 100 nM) [%]	cell viability ([10]; 1000 nM) [%]	cell viability ([10]; 10000 nM) [%]	cell viability ([11]; 1 nM) [%]	cell viability ([11]; 10 nM) [%]	cell viability ([11]; 100 nM) [%]	cell viability ([11]; 1000 nM) [%]	cell viability ([11]; 10000 nM) [%]	cell viability ([12]; 1 nM) [%]	cell viability ([12]; 10 nM) [%]	cell viability ([12]; 100 nM) [%]	cell viability ([12]; 1000 nM) [%]	cell viability ([12]; 10000 nM) [%]	drug sensitivity score [13]	cell viability ([14]; 1 nM) [%]	cell viability ([14]; 10 nM) [%]	cell viability ([14]; 100 nM) [%]	cell viability ([14]; 1000 nM) [%]	cell viability ([14]; 10000 nM) [%]	relative viability EC50 [15] [µM]
COc1ccnc2[nH]cc(C(=O)C(=O)N3CCN(C(=O)c4ccccc4)C[C@H]3C)c12 [BMS-806]	> 10	> 10	> 10	> 10	0	0	0	0	107	102	102	105	99.9	93.3	104	95.1	105	100	105	108	107	110	99.3	99.3	99	96.1	108	107	–	–	–	–	–	–	–
O=S(=O)(NCCNC/C=C/c1ccc(Br)cc1)c1cccc2cnccc12 [H-89]	> 10	> 10	> 10	> 10	0.7	0	0	0	96.8	97.6	100	97	82.9	101	96	102	97.2	90.7	79.7	100	87.6	103	118	99.9	103	98.7	99.9	89.6	0.8	95.5	96.4	91.9	102	74.7	–
O=C(O)COc1ccc(OCCNC[C@H](O)COc2ccccc2)cc1 [ICI-215,001]	> 10	–	–	> 10	0	–	–	0	106	97.5	101	104	92.6	–	–	–	–	–	–	–	–	–	–	98.1	111	103	103	116	0	106	104	104	104	97.1	> 10
CCOCOC[C@H](C[C@H](C)C(=O)NO)NC(=O)c1ccc(Oc2ccccc2)cc1 [ONO-4817]	> 10	> 10	> 10	> 10	0	0	0	0	103	102	103	101	91.5	98.1	103	97.1	104	92.6	92.3	85.3	97.6	95.4	89.2	104	104	100	103	87.6	–	–	–	–	–	–	–
O=C(/C=C/c1ccc2ccccc2n1)c1ccncc1 [PFK-015]	2.68	2.69	–	2.09	6.2	6.4	2.5	5.5	101	94.9	98	94.1	4.2	93	94.8	95.4	94	0	107	105	88	97	59.2	93.3	96.3	95.8	90.6	29.7	8	106	89.6	110	85	0.1	1.99
CC(C)C[C@H](CN)CC(=O)O [PREGABALIN]	> 10	> 10	–	> 10	0	0	–	0.3	93.5	105	106	103	100	94.5	102	98.9	98.2	98.2	–	–	–	–	–	128	122	95	104	82.6	0	105	87.3	106	103	98.9	> 10
CN[C@H]1CC[C@@H](c2ccc(Cl)c(Cl)c2)c2ccccc21 [SERTRALINE HYDROCHLORIDE]	> 10	> 10	–	> 10	1.6	0.5	1.9	0.2	98.5	97.4	102	93.6	77.8	103	99.1	93	100	81.5	102	105	104	103	58.3	99.2	103	95.9	102	84.4	0.4	102	108	98.1	112	79.2	> 10
Cn1c(COP(=O)(NCCBr)NCCBr)cnc1[N+](=O)[O-] [TH-302]	> 10	> 10	–	> 10	0	0	–	0	101	100	98.8	93.1	97.5	103	105	99.9	105	108	–	–	–	–	–	107	94.5	98.6	97.7	89	0.4	97.6	97	118	103	81.3	> 10
